Data on nine molecules can be found in patent US5516894A, “A2b -adenosine receptors” (priority 1994, dated 1996).

“Also recorded” adds a separate entry of the source.

The target of experiment [1] is T1, RFL9 (rat A2b-adenosine receptor) (Rattus norvegicus, UniProt P29276).
T1 sequence (P29276 1-332): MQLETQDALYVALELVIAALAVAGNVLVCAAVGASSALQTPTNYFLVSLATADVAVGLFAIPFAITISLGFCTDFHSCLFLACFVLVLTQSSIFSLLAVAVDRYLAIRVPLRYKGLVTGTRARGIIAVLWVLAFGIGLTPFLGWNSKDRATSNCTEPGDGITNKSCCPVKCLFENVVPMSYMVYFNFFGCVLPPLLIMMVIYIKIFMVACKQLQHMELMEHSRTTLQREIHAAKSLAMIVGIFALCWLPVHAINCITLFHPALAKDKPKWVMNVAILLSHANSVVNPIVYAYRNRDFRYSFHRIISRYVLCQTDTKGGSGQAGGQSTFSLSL
The experiment in a line: ligand binding to COS-6M cells transiently transfected with RFL9. Conditions: for specific binding: [3H]NECA 20 nM, [3H]CCPA 2 nM, [3H]CGS-21680 20 nM.

Experiment [2] relates to dog A2a-adenosine receptor. Conditions: cited from earlier work.
Experiment [3] concerns the target T1, RFL9 (rat A2b-adenosine receptor). The experiment in a line: cAMP response in COS-6M cells transfected with RFL9. The format is cell-based.
Experiment [4] has the same target. The experiment in a line: cAMP in CHO cells stably transfected with RFL9. The format is cell-based. Conditions: NECA 1 μM; four clones. An excerpt: Eight clones were identified which expressed RFL9 mRNA.
Generation of Stable Cell Lines
RNA was extracted from cells following NP-40 lysis.
Cyclic AMP Studies on Stable Transfectants

The test system of experiment [5] is A2a-adenosine receptors. The following applies: cited from earlier work.
Experiment [6] deals with T2, rat A1-adenosine receptor (Rattus norvegicus, UniProt P25099).
T2 sequence (P25099 1-326): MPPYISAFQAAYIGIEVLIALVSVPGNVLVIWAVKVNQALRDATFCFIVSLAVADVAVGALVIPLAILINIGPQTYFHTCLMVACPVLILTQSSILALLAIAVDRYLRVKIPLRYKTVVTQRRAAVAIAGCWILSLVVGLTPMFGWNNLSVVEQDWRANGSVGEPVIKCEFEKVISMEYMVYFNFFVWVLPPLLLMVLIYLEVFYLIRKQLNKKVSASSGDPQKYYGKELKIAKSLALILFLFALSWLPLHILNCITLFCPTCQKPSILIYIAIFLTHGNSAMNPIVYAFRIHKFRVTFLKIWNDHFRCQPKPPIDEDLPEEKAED
As to the kind of experiment: [3H]ligand binding to COS-6M cells transiently transfected with rat A1-adenosine receptor cDNA. The following applies: [3H]NECA 20 nM, [3H]CCPA 2 nM.

Experiment [7] has as its target rat A2a-adenosine receptor (Rattus norvegicus, UniProt P30543). The following applies: COS-6M cells; [3H]NECA 20 nM, [3H]CCPA 2 nM, [3H]CGS-21680 20 nM.
For experiment [8], the target named is T1, RFL9 (rat A2b-adenosine receptor). The experiment in a line: [3H]NECA specific binding to RFL9-transformed CHO cells. The following applies: 100 nM; n=3. The text has this: All determinations were done in triplicate.
In experiment [9] the test system is non-transformed CHO cells. Conditions: 100 nM.
Experiment [10] deals with CHO cells. The experiment in a line: cAMP accumulation in non-transformed CHO cells. The format is cell-based, Chinese Hamster. Conditions: 1 mM; CHO cells not transformed; n=3.

For the molecule `COc1ccc2[nH]c([125I])c(CCNC(C)=O)c2c1` [2[^125 1]melatonin], the “specific binding of 2[125I]melatonin” value in experiment [1] is “do not exhibit specific binding”.
As for `CCNC(=O)[C@H]1O[C@@H](n2cnc3c(N)nc(NCCc4ccc(CCC(=O)O)cc4)nc32)[C@H](O)[C@@H]1O` [CGS-21680, 2-[p-(2-carboxyethyl)phenethylamino]5'-N-ethylcarbox-amidoadenosine], the “affinity for dog A2a-adenosine receptor” value in experiment [2] is listed as “high affinity”.
Turning to `CCNC(=O)[C@H]1O[C@@H](n2cnc3c(N)ncnc32)[C@H](O)[C@@H]1O` [NECA, 5'-N-ethylcarboxamidoadenosine], in experiment [1], the specific binding entry is given as “bind the nonselective adenosine agonist NECA”. In [3] (10 min, read-out: concentration of maximal stimulation of cAMP), the EC100 stood at 10 µM. For the same molecule, the “NECA-stimulated increase in cAMP levels” value in [3] (dose-response) was “dose-dependent increase in cAMP levels”. In experiment [4], the stimulation of clones result was “all were found to be stimulated by NECA addition”. The “affinity for A2a-adenosine receptors” value in experiment [5] was “high affinity”.
On to `OC[C@H]1O[C@@H](n2cnc3c(NC4CCCC4)nc(Cl)nc32)[C@H](O)[C@@H]1O` [[^3 H]CCPA, [^3 H]2-chloro-N-cyclopentyladenosine], for which the specific binding entry in experiment [6] is “specifically bound”; in experiment [1] it was “did not bind; also recorded: do not bind either the A1 - or A2a -receptor-specific agonists with high affinity”; in experiment [7] it was “Only cells transfected with the A1 -adenosine receptor cDNA specifically bound”.
As for `CCNC(=O)[C@H]1O[C@@H](n2cnc3c(N)nc(NCCc4ccc(CCC(=O)O)cc4)nc32)[C@H](O)[C@@H]1O` [[^3 H]CGS-21680, [^3 H]2-[p-(2-carboxyethyl)phenethylamino]5'-N-ethylcarbox-amidoadenosine], in experiment [6], the specific binding result is “Only cells transfected with the A2a -adenosine receptor cDNA specifically bound”.
In the case of `CCNC(=O)[C@H]1O[C@@H](n2cnc3c(N)ncnc32)[C@H](O)[C@@H]1O` [[^3 H]NECA, [^3 H]5'-N-ethylcarboxamidoadenosine], the specific binding result in [1] is “specifically bound”. For the same molecule, in [8], the “[3H]NECA specific binding” value stood at 150 ± 20 fmol/mg.
For the molecule `CCNC(=O)[C@H]1O[C@@H](n2cnc3c(N)ncnc32)[C@H](O)[C@@H]1O` [[^3 H]NECA] [[^3 H]5'-N-ethylcarboxamidoadenosine], in experiment [6], the specific binding entry was “specifically bound”. In experiment [9], the “[3H]NECA specific binding” value was determined as 100 ± 23 fmol/mg.
As for `Nc1ncnc2c1ncn2[C@@H]1O[C@H](CO)[C@@H](O)[C@H]1O` [adenosine], the cAMP accumulation entry in [10] is “Neither NECA or adenosine (1 mM) induced cAMP accumulation”.
As to `Cn1c(=O)c2[nH]cnc2n(C)c1=O` [aminophylline], the “inhibition of maximal NECA-stimulated increase in cAMP levels” value in [3] (antagonist 10^-2 M) is on record as “completely blocked; also recorded: completely inhibited”.
